Source: patent publication US9102623B2, “Pyridinecarboxamides, useful-plant-protecting composition comprising them and processes for their preparation and their use” (Bayer Cropscience AG, priority 2007, dated 2015)

Assays:
barley = test: Post-emergence safener action in barley with the herbicide mesosulfuron-methyl; type: in vivo; details: greenhouse, visual scoring of damage
Source text: (§1) The damage to the plants is scored visually using a scale of 0-100%, in comparison to control plants:
(§2) 0%=no noticeable effect compared to the untreated plant
(§3) 100%=the treated plants dies.
(§4) Seeds or rhizome pieces of monocotyledonous and dicotyledonous harmful plants and crop plants are placed in sandy loam soil in plastic pots, covered with soil and cultivated in the greenhouse under good growth conditions. Alternatively, harmful plants encountered in paddy rice cultivation are cultivated in pots in which the surface of the soil is covered by up to 2 cm of water. Three weeks after sowing, the test plants are treated at the three-leaf stage. The herbicide/safener active compound combinations according to the invention, formulated as emulsion concentrates, and in parallel tests the individual active compounds formulated in a corresponding manner, are sprayed at various dosages at a water application rate of […] (converted) onto the green parts of the plants, and, after the test plants were left to stand in the greenhouse for about 2 to 3 weeks under optimum growth conditions, the effect of the preparations is scored visually in comparison to untreated controls. In the case of rice or harmful plants encountered in the cultivation of rice, the active compounds are also added directly to the irrigation water (application analogously to the so-called granule application) or sprayed onto the plants and into the irrigation water. […]

corn = test: Post-emergence safener action in corn with the herbicide tembotrione; type: in vivo; details: greenhouse, visual scoring of damage
Source text: as §1, §2, §3, §4

Row | SMILES | safener action for the herbicide mesosulfuron-methyl (barley) | safener action for the herbicide tembotrione (corn)
1 | NC(=O)c1cc(Br)c(C(F)(F)F)[nH]c1=O [Compound 909] | good safener action | good safener action
2 | CC(C)CCNC(=O)c1ccc(C(F)(F)Cl)[nH]c1=O [Compound 146] | good safener action | good safener action
3 | CN(C)/C=N/C(=O)c1ccc(C(F)(F)F)[nH]c1=O [Compound 105, N-[(Dimethylamino)methylene]-2-oxo-6-(trifluoromethyl)-1,2-dihydropyridine-3-carboxamide] | good safener action | good safener action
4 | CCC(C)NC(=O)c1cc(Cl)c(C(F)(F)F)[nH]c1=O (stereo not drawn) [Compound 496] | good safener action | good safener action
5 | C=CCNC(=O)c1ccc(C(F)(F)F)[nH]c1=O [Compound 34] | good safener action | good safener action
6 | COCC(C)NC(=O)c1ccc(C(F)(F)F)[nH]c1=O (stereo not drawn) [Compound 64] | good safener action | good safener action
7 | CCN(C)C(=O)c1ccc(C(F)(F)F)[nH]c1=O [Compound 10] | good safener action | good safener action
8 | C#CCNC(=O)c1ccc(C(F)(F)Cl)[nH]c1=O [Compound 153] | good safener action | good safener action
9 | C=CCNC(=O)c1ccc(C(F)(F)Cl)[nH]c1=O [Compound 148] | good safener action | good safener action
10 | CC(C)NC(=O)c1ccc(C(F)(F)C(F)(F)C(F)(F)F)[nH]c1=O [Compound 1599] | good safener action | good safener action
11 | CC(C)NC(=O)c1ccc(C(F)(F)C(F)(F)F)[nH]c1=O [Compound 345] | good safener action | good safener action
12 | O=C(NCC(F)(F)F)c1ccc(C(F)(F)Cl)[nH]c1=O [Compound 140] | good safener action | good safener action
13 | CN(C)C(=O)c1ccc(C(F)(F)F)[nH]c1=O [Compound 9] | good safener action | good safener action
14 | CCCC(C)NC(=O)c1cc(Cl)c(C(F)(F)F)[nH]c1=O (stereo not drawn) [Compound 498] | good safener action | good safener action
15 | COCCCNC(=O)c1ccc(C(F)(F)F)[nH]c1=O [Compound 66] | good safener action | good safener action
16 | O=C(NC1CCC1)c1ccc(C(F)(F)C(F)(F)Cl)[nH]c1=O [Compound 1488] |  | good safener action
17 | CCCC(C)NC(=O)c1ccc(C(F)(F)C(F)(F)C(F)(F)F)[nH]c1=O (stereo not drawn) [Compound 1638] |  | good safener action
18 | CCNC(=O)c1cc(Br)c(C(F)(F)F)[nH]c1=O [Compound 911] | good safener action | good safener action
19 | CCC(CC)NC(=O)c1cc(Br)c(C(F)(F)F)[nH]c1=O [Compound 960] | good safener action | good safener action
20 | C=CCN(CC=C)C(=O)c1ccc(C(F)(F)F)[nH]c1=O [Compound 36] | good safener action | good safener action
21 | NC(=O)c1ccc(C(F)(F)Cl)[nH]c1=O [Compound 114] | good safener action | good safener action
22 | CCCNC(=O)c1ccc(C(F)(F)C(F)(F)C(F)(F)F)[nH]c1=O [Compound 1598, 6-(Heptafluoropropyl)-2-oxo-N-propyl-1,2-dihydropyridine-3-carboxamide] | good safener action | good safener action

Row | SMILES | safener action for the herbicide mesosulfuron-methyl (barley) | safener action for the herbicide tembotrione (corn)
23 | CC(C)(C)CNC(=O)c1ccc(C(F)(F)C(F)(F)C(F)(F)F)[nH]c1=O [Compound 1619] |  | good safener action
24 | CC(NC(=O)c1ccc(C(F)(F)Cl)[nH]c1=O)c1ccccc1 (stereo not drawn) [Compound 210] |  | good safener action
25 | C=CCNC(=O)c1cc(Br)c(C(F)(F)F)[nH]c1=O [Compound 943, N-Allyl-5-bromo-2-oxo-6-(trifluoromethyl)-1,2-dihydropyridine-3-carboxamide] | good safener action | good safener action
26 | CCC(CC)NC(=O)c1ccc(C(F)(F)C(F)(F)C(F)(F)F)[nH]c1=O [Compound 1646] |  | good safener action
27 | O=C(NCc1ccc(Cl)nc1)c1ccc(C(F)(F)F)[nH]c1=O [Compound 95] |  | good safener action
28 | C=CCNC(=O)c1ccc(C(F)(F)C(F)(F)C(F)(F)F)[nH]c1=O [Compound 1629] |  | good safener action
29 | COCC(C)NC(=O)c1ccc(C(F)(F)Cl)[nH]c1=O (stereo not drawn) [Compound 178] | good safener action | good safener action
30 | C=CCNC(=O)c1cc(Cl)c(C(F)(F)F)[nH]c1=O [Compound 489] | good safener action | good safener action
31 | CCNC(=O)c1cc(Cl)c(C(F)(F)F)[nH]c1=O [Compound 457] | good safener action | good safener action
32 | CN(C)C(=O)c1ccc(C(F)(F)C(F)(F)C(F)(F)F)[nH]c1=O [Compound 1604] |  | good safener action
33 | O=C(NC1CC1)c1ccc(C(F)(F)C(F)(F)C(F)(F)F)[nH]c1=O [Compound 1600] | good safener action | good safener action
34 | CC(C)NC(=O)c1cc(Br)c(C(F)(F)F)[nH]c1=O [Compound 913] | good safener action | good safener action
35 | CCOC(CNC(=O)c1ccc(C(F)(F)Cl)[nH]c1=O)OCC [Compound 169] | good safener action | good safener action
36 | CC(C)NC(=O)c1ccc(C(F)(F)C(F)(F)Cl)[nH]c1=O [Compound 1485] |  | good safener action
37 | CC(C)(C)CNC(=O)c1ccc(C(F)(F)F)[nH]c1=O [Compound 24] |  | good safener action
38 | CCN(CC)C(=O)c1ccc(C(F)(F)F)[nH]c1=O [Compound 14] | good safener action | good safener action
39 | CCCNC(=O)c1cc(Br)c(C(F)(F)Cl)[nH]c1=O [Compound 1026] | good safener action | good safener action
40 | O=C(c1ccc(C(F)(F)Cl)[nH]c1=O)N1CCOCC1 [Compound 214] | good safener action | good safener action
41 | CCNC(=O)c1cc(Br)c(C(F)F)[nH]c1=O [Compound 1139] |  | good safener action
42 | CC(C)NC(=O)c1ccc(C(F)(F)C(F)F)[nH]c1=O [Compound 1371] |  | good safener action
43 | CCCCNC(=O)c1ccc(C(F)(F)F)[nH]c1=O [Compound 6] |  | good safener action
44 | CCONC(=O)c1ccc(C(F)(F)F)[nH]c1=O [Compound 79] | good safener action | good safener action
